Source: ChEMBL document CHEMBL1201862, “PubChem BioAssay data set” (2004)
Activity calls are given as the source filed them.

Key:
[1] = molecular target: T1, Heat shock factor protein 1 (Mus musculus, UniProt P38532); assay: enhancement of HSF1-driven luciferase signal – cell-based, NIH3T3, luminescence, dose retest, confirmation (AID 435004); type: functional;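 also: stress induced by proteasome inhibitor MG132 added 30 min after compound; luciferase reporter driven by HSF1 response element in NIH3T3 cells; actives raise luminescence as potentiators of the MG132 stress response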
T1 sequence (P38532 whole entry): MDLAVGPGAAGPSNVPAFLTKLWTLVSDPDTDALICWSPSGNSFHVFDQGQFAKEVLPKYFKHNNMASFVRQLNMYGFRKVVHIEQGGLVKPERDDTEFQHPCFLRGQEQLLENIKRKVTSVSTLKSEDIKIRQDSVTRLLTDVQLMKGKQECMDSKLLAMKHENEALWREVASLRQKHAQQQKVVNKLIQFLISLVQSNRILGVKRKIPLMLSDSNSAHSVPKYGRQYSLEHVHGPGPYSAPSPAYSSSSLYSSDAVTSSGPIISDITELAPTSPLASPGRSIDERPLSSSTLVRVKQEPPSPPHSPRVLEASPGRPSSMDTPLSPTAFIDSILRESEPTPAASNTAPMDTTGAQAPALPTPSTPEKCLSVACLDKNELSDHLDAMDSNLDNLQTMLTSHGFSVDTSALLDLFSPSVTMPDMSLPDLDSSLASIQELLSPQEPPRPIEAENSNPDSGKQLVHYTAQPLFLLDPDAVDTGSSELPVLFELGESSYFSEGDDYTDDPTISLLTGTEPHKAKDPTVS

SN12K1 = assay: cells; type: functional; settings: Homo sapiens
P388 = assay: cells; type: functional; settings: Mus musculus
P388/ADR = assay: cells; type: functional; settings: Mus musculus
[2] = intracellular Trypanosoma cruzi inhibitors in host cells – cell-based, plate reader, cherry-pick samples, set 3, dose response (AID 651818); type: functional;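 also: compounds incubated with infected cells for about four days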
Genome polyprotein = Genome polyprotein (dengue virus type 2, UniProt P29990); assay: flavivirus cap methylation enzyme inhibition – biochemical, confirmation dose response, primary screen (AID 588689); type: functional
Chain of Genome polyprotein (P29990 2492-3391 limits assumed): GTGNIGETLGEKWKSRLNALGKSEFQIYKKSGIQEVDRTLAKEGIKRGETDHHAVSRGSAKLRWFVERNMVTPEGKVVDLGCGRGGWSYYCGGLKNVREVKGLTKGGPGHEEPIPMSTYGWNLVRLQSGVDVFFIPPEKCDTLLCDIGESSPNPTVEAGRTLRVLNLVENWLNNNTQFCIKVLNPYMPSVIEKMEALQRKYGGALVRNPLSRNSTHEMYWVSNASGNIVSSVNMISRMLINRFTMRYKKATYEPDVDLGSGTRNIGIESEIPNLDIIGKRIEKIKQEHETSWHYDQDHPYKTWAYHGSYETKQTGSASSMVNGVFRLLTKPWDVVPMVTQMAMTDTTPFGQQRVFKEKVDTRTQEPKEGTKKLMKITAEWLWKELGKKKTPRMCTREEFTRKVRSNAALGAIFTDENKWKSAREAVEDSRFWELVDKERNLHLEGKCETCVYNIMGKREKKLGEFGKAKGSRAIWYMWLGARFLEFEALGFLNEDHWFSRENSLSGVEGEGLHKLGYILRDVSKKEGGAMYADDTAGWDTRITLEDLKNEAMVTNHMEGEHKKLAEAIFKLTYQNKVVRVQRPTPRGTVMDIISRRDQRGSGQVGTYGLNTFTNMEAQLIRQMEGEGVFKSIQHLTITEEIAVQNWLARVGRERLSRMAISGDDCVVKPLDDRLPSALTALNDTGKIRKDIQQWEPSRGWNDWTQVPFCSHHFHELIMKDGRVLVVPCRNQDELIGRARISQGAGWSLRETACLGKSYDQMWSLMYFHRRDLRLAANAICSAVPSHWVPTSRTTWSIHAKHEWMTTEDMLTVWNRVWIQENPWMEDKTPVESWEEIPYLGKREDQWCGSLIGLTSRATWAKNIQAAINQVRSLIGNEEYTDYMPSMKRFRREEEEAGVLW

Large T antigen = Large T antigen (Simian virus 40, UniProt P03070); type: functional, Betapolyomavirus macacae;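 also: Confirmatory-stage PubChem screen for compounds that inhibit SV40 T antigen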
Chain of Large T antigen (P03070 whole entry): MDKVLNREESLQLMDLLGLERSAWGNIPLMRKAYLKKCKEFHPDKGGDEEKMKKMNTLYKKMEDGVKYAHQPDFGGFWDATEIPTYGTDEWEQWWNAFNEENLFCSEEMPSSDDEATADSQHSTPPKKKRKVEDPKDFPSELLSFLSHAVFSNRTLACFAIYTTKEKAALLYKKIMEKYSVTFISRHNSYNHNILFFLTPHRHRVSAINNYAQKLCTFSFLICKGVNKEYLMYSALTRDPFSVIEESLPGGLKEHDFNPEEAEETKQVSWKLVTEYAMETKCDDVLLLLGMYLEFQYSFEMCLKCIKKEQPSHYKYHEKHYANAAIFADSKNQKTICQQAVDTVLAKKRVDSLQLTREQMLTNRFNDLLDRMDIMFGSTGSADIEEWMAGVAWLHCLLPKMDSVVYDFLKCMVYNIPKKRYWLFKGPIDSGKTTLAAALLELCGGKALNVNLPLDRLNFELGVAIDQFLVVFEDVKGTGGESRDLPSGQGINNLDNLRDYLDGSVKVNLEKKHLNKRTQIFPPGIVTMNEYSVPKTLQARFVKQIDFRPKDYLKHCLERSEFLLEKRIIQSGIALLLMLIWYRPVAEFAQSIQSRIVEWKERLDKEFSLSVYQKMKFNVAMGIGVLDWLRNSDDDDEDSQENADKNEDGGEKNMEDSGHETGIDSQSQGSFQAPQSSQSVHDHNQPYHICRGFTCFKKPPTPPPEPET

[3] = molecular target: Induced myeloid leukemia cell differentiation protein Mcl-1 (Homo sapiens, UniProt Q07820); type: functional
Chain of Induced myeloid leukemia cell differentiation protein Mcl-1 (Q07820 whole entry): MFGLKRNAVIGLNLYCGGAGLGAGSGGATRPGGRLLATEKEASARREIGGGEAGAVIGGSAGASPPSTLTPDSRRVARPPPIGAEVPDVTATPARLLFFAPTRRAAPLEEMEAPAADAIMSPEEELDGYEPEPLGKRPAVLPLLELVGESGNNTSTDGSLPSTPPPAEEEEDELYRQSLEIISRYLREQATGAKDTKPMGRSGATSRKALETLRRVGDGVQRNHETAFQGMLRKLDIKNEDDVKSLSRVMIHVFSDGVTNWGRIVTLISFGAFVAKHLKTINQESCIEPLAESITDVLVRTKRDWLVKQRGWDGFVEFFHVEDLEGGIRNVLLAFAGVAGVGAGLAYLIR

[4] = Luminescence Cell-Based Dose Retest to Confirm Inhibitors of Cancer Stem Cells. [Related pubchem assays (depositor defined):AID2717, AID2721]; type: functional; settings: Homo sapiens
INS1 = assay: INS-1E survival protection against cytokine death – cell-based, luminescence, retest, dose response (AID 449756); type: functional; settings: Rattus norvegicus;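 also: cell death triggered by IL-1 beta plus TNF-alpha plus IFN-gamma mixture; protective hits raise ATP signal compared with cytokine alone wells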
[5] = Trypanosoma cruzi growth suppression in host cells – NIH3T3 host cells, beta-gal luminescence, confirmation (AID 2044); type: functional, cell-based;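 also: intracellular parasites grown in NIH/3T3 mouse fibroblasts as host cells; luminescent beta-galactosidase reporter signal from transgenic T. cruzi replicating inside host cells; inhibitors lower the luminescence signal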
[6] = molecular target: T2, Ubiquitin-conjugating enzyme E2 N (Homo sapiens, UniProt P61088); type: functional;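 also: Dose-response confirmation in a TR-FRET assay detecting UBC13-driven polyubiquitin chain formation, inhibition measured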
T2 sequence (P61088 whole entry): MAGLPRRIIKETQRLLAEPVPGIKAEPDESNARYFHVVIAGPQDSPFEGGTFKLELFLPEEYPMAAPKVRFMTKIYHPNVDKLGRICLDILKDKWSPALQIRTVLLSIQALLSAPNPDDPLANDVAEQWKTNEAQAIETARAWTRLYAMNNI

[7] = molecular target: T3, Replicative DNA helicase DnaB (Mycobacterium tuberculosis, UniProt P9WMR3); assay: DnaB intein splicing inhibitors, dose response, biochemical, cell-free fluorescence (AID 449749); type: functional
T3 sequence (P9WMR3 whole entry): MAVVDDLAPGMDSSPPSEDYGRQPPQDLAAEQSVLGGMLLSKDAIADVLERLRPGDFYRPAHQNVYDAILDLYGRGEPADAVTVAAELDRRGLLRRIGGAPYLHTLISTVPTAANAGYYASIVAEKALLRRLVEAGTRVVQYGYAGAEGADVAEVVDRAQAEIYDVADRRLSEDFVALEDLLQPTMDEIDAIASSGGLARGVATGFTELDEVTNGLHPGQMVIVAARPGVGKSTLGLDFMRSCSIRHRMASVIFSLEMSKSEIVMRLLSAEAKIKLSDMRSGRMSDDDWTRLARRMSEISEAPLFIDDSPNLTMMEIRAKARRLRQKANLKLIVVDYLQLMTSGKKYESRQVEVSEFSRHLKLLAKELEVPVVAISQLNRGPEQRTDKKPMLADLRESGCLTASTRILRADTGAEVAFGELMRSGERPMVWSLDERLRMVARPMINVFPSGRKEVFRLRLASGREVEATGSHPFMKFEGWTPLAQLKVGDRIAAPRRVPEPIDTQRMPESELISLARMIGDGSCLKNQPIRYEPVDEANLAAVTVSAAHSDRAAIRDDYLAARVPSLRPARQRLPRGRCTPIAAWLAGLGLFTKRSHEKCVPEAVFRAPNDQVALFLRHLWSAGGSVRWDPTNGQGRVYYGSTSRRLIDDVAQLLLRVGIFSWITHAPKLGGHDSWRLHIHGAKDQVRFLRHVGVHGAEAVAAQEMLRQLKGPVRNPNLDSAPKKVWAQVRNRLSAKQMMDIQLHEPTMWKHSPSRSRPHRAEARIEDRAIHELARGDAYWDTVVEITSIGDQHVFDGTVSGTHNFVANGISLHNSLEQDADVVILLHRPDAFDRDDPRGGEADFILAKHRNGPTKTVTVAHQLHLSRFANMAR

[8] = NIH3T3 cell viability loss – ATP luminescence, mouse fibroblasts, counter-screen, dose response (AID 2010); type: functional, cell-based;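 also: cells exposed to compound for about 90 hours before reading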
Protein RecA = molecular target: T4, Protein RecA (Mycobacterium tuberculosis, UniProt P9WHJ3); assay: Fluorescence Cell-Free Homogeneous Dose Retest to Identify Inhibitors of RecA-Intein Splicing Activity. [Related pubchem assays (depositor defined):AID2097, AID2223, AID489010, AID492950]; type: functional
T4 sequence (P9WHJ3 whole entry): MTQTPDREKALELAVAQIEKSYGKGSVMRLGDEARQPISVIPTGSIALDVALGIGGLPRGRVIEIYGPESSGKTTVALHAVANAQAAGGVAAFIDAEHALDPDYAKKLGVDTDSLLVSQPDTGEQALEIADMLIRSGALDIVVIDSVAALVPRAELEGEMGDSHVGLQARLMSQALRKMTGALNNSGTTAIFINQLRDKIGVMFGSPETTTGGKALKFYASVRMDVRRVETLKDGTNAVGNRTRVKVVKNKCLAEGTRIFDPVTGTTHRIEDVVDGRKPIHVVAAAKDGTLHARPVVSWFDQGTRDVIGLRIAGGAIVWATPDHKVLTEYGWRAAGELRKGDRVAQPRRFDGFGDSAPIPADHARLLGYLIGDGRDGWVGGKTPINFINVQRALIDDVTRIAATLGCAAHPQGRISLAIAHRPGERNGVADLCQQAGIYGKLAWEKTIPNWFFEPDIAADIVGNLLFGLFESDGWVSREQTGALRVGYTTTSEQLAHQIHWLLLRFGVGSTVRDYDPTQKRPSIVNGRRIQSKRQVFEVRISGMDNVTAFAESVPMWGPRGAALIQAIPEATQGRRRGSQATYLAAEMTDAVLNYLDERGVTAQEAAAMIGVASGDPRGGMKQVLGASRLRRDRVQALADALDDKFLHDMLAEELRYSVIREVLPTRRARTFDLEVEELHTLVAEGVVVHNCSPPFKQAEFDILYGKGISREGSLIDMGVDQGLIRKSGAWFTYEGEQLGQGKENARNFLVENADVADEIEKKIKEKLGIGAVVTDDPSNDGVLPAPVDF

Cytochrome P450 1A2 = molecular target: T5, Cytochrome P450 1A2 (Homo sapiens, UniProt P05177);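 also: PubChem cytochrome P450 panel assay, CYP1A2 panel member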
T5 sequence (P05177 whole entry): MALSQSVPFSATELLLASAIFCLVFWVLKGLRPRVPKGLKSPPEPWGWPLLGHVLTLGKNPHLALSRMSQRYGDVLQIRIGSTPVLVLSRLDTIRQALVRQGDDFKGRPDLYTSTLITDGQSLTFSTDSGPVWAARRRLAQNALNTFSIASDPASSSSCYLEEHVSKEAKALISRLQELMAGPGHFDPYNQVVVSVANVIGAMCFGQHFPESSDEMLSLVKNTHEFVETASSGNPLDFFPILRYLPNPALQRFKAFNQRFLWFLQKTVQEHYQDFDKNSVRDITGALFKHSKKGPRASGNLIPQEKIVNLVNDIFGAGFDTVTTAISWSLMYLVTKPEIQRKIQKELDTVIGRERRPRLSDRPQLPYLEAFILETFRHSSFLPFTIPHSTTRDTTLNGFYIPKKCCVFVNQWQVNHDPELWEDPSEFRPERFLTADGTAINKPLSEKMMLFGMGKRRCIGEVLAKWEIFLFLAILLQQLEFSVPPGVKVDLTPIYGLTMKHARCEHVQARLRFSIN

Cytochrome P450 2D6 = Cytochrome P450 2D6 (Homo sapiens, UniProt P10635);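 also: CYP2D6 member of a cytochrome P450 panel assay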
Chain of Cytochrome P450 2D6 (P10635 whole entry): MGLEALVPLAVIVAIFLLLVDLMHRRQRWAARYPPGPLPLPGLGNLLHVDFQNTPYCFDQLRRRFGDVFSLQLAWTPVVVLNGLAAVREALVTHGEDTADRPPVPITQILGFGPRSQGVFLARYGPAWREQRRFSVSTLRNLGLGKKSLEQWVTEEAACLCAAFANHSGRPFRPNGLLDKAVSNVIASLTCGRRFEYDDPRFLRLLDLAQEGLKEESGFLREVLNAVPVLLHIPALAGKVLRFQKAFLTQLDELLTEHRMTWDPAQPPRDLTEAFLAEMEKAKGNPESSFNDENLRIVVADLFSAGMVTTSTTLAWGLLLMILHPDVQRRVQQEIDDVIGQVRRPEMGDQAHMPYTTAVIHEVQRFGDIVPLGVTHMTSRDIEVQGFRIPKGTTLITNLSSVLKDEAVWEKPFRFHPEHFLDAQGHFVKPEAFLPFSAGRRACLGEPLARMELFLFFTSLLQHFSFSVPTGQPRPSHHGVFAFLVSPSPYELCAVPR

Cytochrome P450 2C9 = Cytochrome P450 2C9 (Homo sapiens, UniProt P11712)
Chain of Cytochrome P450 2C9 (P11712 whole entry): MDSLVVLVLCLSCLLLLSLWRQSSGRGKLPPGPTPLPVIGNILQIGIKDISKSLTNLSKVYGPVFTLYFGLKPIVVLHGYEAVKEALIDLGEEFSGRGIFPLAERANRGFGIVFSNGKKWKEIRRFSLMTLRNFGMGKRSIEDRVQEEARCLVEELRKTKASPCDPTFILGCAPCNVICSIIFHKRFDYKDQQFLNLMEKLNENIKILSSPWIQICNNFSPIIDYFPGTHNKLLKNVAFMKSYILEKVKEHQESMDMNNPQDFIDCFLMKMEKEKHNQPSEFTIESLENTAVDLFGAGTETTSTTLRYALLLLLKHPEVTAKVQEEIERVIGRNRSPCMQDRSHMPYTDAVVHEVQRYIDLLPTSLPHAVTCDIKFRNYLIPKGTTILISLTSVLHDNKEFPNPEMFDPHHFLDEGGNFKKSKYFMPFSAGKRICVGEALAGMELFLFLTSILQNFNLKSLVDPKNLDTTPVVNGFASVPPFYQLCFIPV

Cytochrome P450 3A4 = Cytochrome P450 3A4 (Homo sapiens, UniProt P08684);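 also: CYP3A4 tested as one member of a cytochrome P450 panel screen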
Chain of Cytochrome P450 3A4 (P08684 whole entry): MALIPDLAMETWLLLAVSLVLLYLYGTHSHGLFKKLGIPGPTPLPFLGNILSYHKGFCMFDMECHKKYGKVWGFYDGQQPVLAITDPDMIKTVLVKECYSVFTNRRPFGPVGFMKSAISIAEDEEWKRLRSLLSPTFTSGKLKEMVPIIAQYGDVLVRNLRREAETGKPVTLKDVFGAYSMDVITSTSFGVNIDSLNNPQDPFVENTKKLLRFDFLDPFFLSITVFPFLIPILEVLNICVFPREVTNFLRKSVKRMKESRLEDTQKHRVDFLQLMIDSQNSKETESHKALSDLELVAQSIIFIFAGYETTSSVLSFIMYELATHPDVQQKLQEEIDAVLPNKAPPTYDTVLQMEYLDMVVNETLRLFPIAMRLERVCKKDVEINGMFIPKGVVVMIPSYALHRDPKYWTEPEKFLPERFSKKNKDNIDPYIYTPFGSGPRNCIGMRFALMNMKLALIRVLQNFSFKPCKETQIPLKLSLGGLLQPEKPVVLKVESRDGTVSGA

In the case of `CCN(Cc1ccccc1)C(=O)C1CCN(C/C(C)=C/c2ccccc2)CC1`, the EC50 [1] is reported as > 260 µM (inactive).

In the case of `CCOC(=S)SCC(=O)Nc1nc(C)c(C)s1`, the EC50 [1] is reported as 7.81 µM (active).

In the case of `COCCO` [2-METHOXYETHANOL], the GI50 (SN12K1) is reported as > 100 µM (inactive), the GI50 (P388) is reported as > 100 µM (inactive) and the GI50 (P388/ADR) is reported as > 100 µM (inactive).

For `C[C@@H]1CN([C@H](C)CO)C(=O)Cc2cc(NC(=O)CCCCCC(=O)Nc3ccccc3N)ccc2O[C@@H]1CN(C)Cc1ccc(Cl)c(Cl)c1`, the AC50 [2] was 4.01 µM (active).

For `NC1CCCCC1`, the GI50 (SN12K1) was 243 µM (inactive) and the GI50 (P388) was 92.9 µM (inactive).

In the case of `CC[C@](O)(C(=O)O)c1cc2n(c(=O)c1CO)Cc1cc3ccccc3nc1-2`, the GI50 (SN12K1) is reported as 0.209 µM (active), the GI50 (P388) is reported as 0.025 µM (active) and the GI50 (P388/ADR) is reported as 0.03 µM (active).

In the case of `O=C(COc1cccnc1[N+](=O)[O-])c1ccc(Cl)s1`, the IC50 (Genome polyprotein) is reported as > 100 µM (active), the IC50 (Large T antigen) is reported as 67.7 µM (active) and the IC50 [3] is reported as 3.78 µM (active).

With `CCCCCc1cc(=O)oc2c(C(CCN3CCCC(C)C3)c3ccc(OC)cc3)c(OC)cc(OC)c12` (stereo not drawn) the AC50 [4] was 3.25 µM (active), the AC50 (INS1) was 7.46 µM (active) and the EC50 [5] was 1.6 µM (active). For the same compound, the IC50 [6] was > 20 µM (inactive), the AC50 [7] was 4.78 µM (active) and the EC50 [8] was 7.56 µM (active). The EC50 (Protein RecA) was 12 µM (active).

With `CCC(CC)COC(=O)C1=C(C)NC(=O)NC1c1cc(OC)ccc1OC` (stereo not drawn) the EC50 [1] was > 260 µM (inactive).

With `CCCCCCCCCCCCCCCCCC(=O)NC[C@@H](COP(=O)([O-])OCC[N+](C)(C)C)OCC` the AC50 (Cytochrome P450 1A2) was 39.8 µM (inconclusive), the AC50 (Cytochrome P450 2D6) was 39.8 µM (inconclusive) and the AC50 (Cytochrome P450 2C9) was “inconclusive”.

For `COc1ccccc1CNC(=O)c1csc(Cc2ccc(Cl)cc2)n1`, the EC50 [1] was > 260 µM (inactive).

In the case of `Cc1ccccc1C(=O)NN(C)c1nc2ccccc2nc1C(F)(F)F`, the AC50 (Cytochrome P450 3A4) is reported as 7.08 µM (inconclusive) and the AC50 (Cytochrome P450 2C9) is reported as “inconclusive”.
